Test results: publication PMC4199632, “Exploring the Anti-Cancer Activity of Novel Thiosemicarbazones Generated through the Combination of Retro-Fragments: Dissection of Critical Structure-Activity Relationships” (PLoS ONE, 2014)

System: normal human dermal fibroblast (NHDF) cells
Assay: Proliferation assay (MTS, 96 h), normal mortal cells
Assay type: cell-based
Details: Homo sapiens, NHDF, 96 h, 96 h incubation, mean ±SD (3 experiments)
Procedure: (§1) The human cancer cell types (neuroepithelioma (SK-N-MC), colon cancer (HCT116 with wild-type p53 (p53^+/+)), Burkitt's lymphoma (Raji) and cervical carcinoma (HeLa)) cells and normal human dermal fibroblasts (NHDF) were obtained from the American Type Culture Collection (ATCC, Manassas, VA, USA). HCT116 null p53 (p53^−/−) cells were obtained from the Maria Sklodowska-Curie Memorial Cancer Center and Institute of Oncology, Poland.
(§2) The SK-N-MC cells were cultured in minimum essential medium (MEM; Life Technologies, Grand Island, New York, USA) containing 10% (v/v) fetal bovine serum (FBS; Life Technologies), 1 mM sodium pyruvate (Life Technologies), 1% (v/v) non-essential amino acids (Life Technologies), 2 mM L-glutamine (Life Technologies), 100 U/mL penicillin (Life Technologies), 100 µg/mL streptomycin (Life Technologies) and 0.28 µg/mL fungizone (Bristol Myers Squibb Pharmaceuticals, Montreal, Canada). The HCT116 and NHDF cells were grown in Dulbecco's modified Eagle's medium (DMEM; Sigma-Aldrich) supplemented with 12% (v/v) heat-inactivated FBS (HCT116; Life Technologies) or 15% (v/v) FBS (NHDF; Life Technologies), 100 µg/mL of gentamicin (Polfa Warszawa S.A., Warsaw, Poland), 100 µg/mL of streptomycin (Polfa) and 100 U/mL of penicillin (Polfa). The Raji and HeLa cells were cultured in Roswell Park Memorial Institute medium (RPMI-1640; Sigma-Aldrich) with the addition of 10% (v/v) heat-inactivated FBS (Life Technologies) and the supplements described for SK-N-MC cells above. All cell lines were cultured under standard conditions at 37°C in a humidified atmosphere at 5% CO2 and were subcultured every 3–4 days as required.
(§3) The cells were seeded in 96-well plates (SK-N-MC: 1.5×10^4 cells/well; HeLa: 5.0×10^3 cells/well; Raji: 3.0×10^3 cells/well; HCT116: 3.5×10^3 cells/well; NHDF: 3.0×10^3 cells/well) 24 h prior to the addition of the novel compounds. The assays were performed using a 72 h (SK-N-MC, Raji, HeLa) or 96 h (HCT 116, NHDF) incubation period with the agents at 37°C. […] Additionally, DFO and Dp44mT were included as positive controls in all experiments as their activity is well characterized, [42], [50].
(§4) Chelator stock solutions were prepared in DMSO and diluted in media so that the final [DMSO] <0.05%. The results were expressed as a percentage of the control and the resulting IC50 values were calculated using GraphPad Prism 5 (GraphPad Software, Inc., La Jolla, CA, USA). The IC50 was defined as the concentration necessary to reduce the absorbance to 50% of the untreated control. Each individual compound was tested in triplicate in a single experiment, with each experiment being repeated three times. After incubation of HCT 116 and NHDF cells with the tested compounds, 20 µL of the CellTiter 96 Aqueous One Solution - MTS (Promega, Madison, WI, USA) solution was added to each well (with 100 µL of DMEM without phenol red) and incubated for 1 h/37°C. The optical density of the samples was analyzed at 490 nm.

| Compound | IC50 [µM] |
| --- | --- |
| CCN1CCN(C(=S)N/N=C/c2ccccc2O)CC1 [6a] | > 25 |
| Oc1cccc2ccc(/C=N/NC(=S)N3CCN(c4ccccc4)CC3)nc12 [3b] | 8.88 ± 1.07 |
| CN(C(=S)N/N=C/c1c(O)ccc2cccnc12)C1CCCCC1 [4f] | 9.18 ± 3.68 |
| CCN1CCN(C(=S)NN=C(c2ccccn2)c2ccccn2)CC1 [1a] | 0.017 ± 0.004 |
| Oc1ccc2cccnc2c1/C=N/NC(=S)N1CCN(c2ccccn2)CC1 [4d] | 10.1 ± 2.7 |
| Oc1ccc2cccnc2c1/C=N/NC(=S)N1CCN(c2ccccc2)CC1 [4b] | 10.1 ± 1.2 |
| S=C(N/N=C/c1ccc2ccccc2n1)N1CCN(c2cnccn2)CC1 [2e] | 9.44 ± 3.84 |
| Oc1ccccc1/C=N/NC(=S)N1CCN(c2cnccn2)CC1 [6e] | > 25 |

System: SK-N-MC neuroepithelioma cells
Assay: Proliferation assay (MTT, 72 h)
Assay type: cell-based
Details: Homo sapiens, 72 h incubation, mean ±SD (3 experiments)
Procedure: as §1, §2, §3, §4
(§5) MTT (3-[4,5-dimethylthiazol-2-yl]-2,5-diphenyltetrazolium bromide) was used to evaluate the anti-proliferative effects of the chelators in SK-N-MC and Raji cells. Following incubation with the investigated compounds, 10 µL of MTT (5 mg/mL in PBS; Sigma-Aldrich) was added to each well. After a 2 h (SK-N-MC) or 4 h (Raji) incubation, the plates were centrifuged, and the cells were lysed with 100 µL of 10% SDS-50% isobutanol in 0.01 M HCl (SK-N-MC) or DMSO (Raji). The absorbance was measured at 570 nm. The anti-proliferative effects of these novel agents on HeLa cells were estimated using crystal violet staining (0.5% crystal violet solution for 10 min). Finally, the wells were rinsed with water and the cells were lysed with 2% SDS. The optical density of the samples was analyzed at 595 nm.

| Compound | IC50 [µM] |
| --- | --- |
| CCN1CCN(C(=S)N/N=C/c2ccccc2O)CC1 [6a] | > 6.25 |
| Oc1cccc2ccc(/C=N/NC(=S)N3CCN(c4ccccc4)CC3)nc12 [3b] | > 6.25 |
| CN(C(=S)N/N=C/c1c(O)ccc2cccnc12)C1CCCCC1 [4f] | > 6.25 |
| CCN1CCN(C(=S)NN=C(c2ccccn2)c2ccccn2)CC1 [1a] | 0.18 ± 0.09 |
| Oc1ccc2cccnc2c1/C=N/NC(=S)N1CCN(c2ccccn2)CC1 [4d] | 4.54 ± 1.6 |
| Oc1ccc2cccnc2c1/C=N/NC(=S)N1CCN(c2ccccc2)CC1 [4b] | 4.46 ± 0.78 |
| S=C(N/N=C/c1ccc2ccccc2n1)N1CCN(c2cnccn2)CC1 [2e] | 0.48 ± 0.1 |
| Oc1ccccc1/C=N/NC(=S)N1CCN(c2cnccn2)CC1 [6e] | > 6.25 |

System: Raji Burkitt's lymphoma cells
Assay: Proliferation assay (MTT, 72 h)
Assay type: cell-based
Details: Homo sapiens, 72 h incubation, mean ±SD (3 experiments)
Procedure: as §1, §2, §3, §4, §5

| Compound | IC50 [µM] |
| --- | --- |
| CCN1CCN(C(=S)N/N=C/c2ccccc2O)CC1 [6a] | 10.2 ± 6.6 |
| Oc1cccc2ccc(/C=N/NC(=S)N3CCN(c4ccccc4)CC3)nc12 [3b] | 0.19 ± 0.02 |
| CN(C(=S)N/N=C/c1c(O)ccc2cccnc12)C1CCCCC1 [4f] | 0.46 ± 0.23 |
| CCN1CCN(C(=S)NN=C(c2ccccn2)c2ccccn2)CC1 [1a] | 0.08 ± 0.02 |
| Oc1ccc2cccnc2c1/C=N/NC(=S)N1CCN(c2ccccn2)CC1 [4d] | 1.55 ± 0.4 |
| Oc1ccc2cccnc2c1/C=N/NC(=S)N1CCN(c2ccccc2)CC1 [4b] | 2.23 ± 1.2 |
| S=C(N/N=C/c1ccc2ccccc2n1)N1CCN(c2cnccn2)CC1 [2e] | 0.29 ± 0.11 |
| Oc1ccccc1/C=N/NC(=S)N1CCN(c2cnccn2)CC1 [6e] | 9.83 ± 2.05 |

System: HeLa cervical carcinoma cells
Assay: Proliferation assay (crystal violet, 72 h)
Assay type: cell-based
Details: Homo sapiens, 72 h incubation, mean ±SD (3 experiments)
Procedure: as §1, §2, §3, §4, §5

| Compound | IC50 [µM] |
| --- | --- |
| CCN1CCN(C(=S)N/N=C/c2ccccc2O)CC1 [6a] | 22.1 ± 5.4 |
| Oc1cccc2ccc(/C=N/NC(=S)N3CCN(c4ccccc4)CC3)nc12 [3b] | 8.45 ± 2.09 |
| CN(C(=S)N/N=C/c1c(O)ccc2cccnc12)C1CCCCC1 [4f] | 13.3 ± 1 |
| CCN1CCN(C(=S)NN=C(c2ccccn2)c2ccccn2)CC1 [1a] | 0.48 ± 0.31 |
| Oc1ccc2cccnc2c1/C=N/NC(=S)N1CCN(c2ccccn2)CC1 [4d] | 2.73 ± 0.55 |
| Oc1ccc2cccnc2c1/C=N/NC(=S)N1CCN(c2ccccc2)CC1 [4b] | 4.38 ± 0.95 |
| S=C(N/N=C/c1ccc2ccccc2n1)N1CCN(c2cnccn2)CC1 [2e] | 1.56 ± 0.44 |
| Oc1ccccc1/C=N/NC(=S)N1CCN(c2cnccn2)CC1 [6e] | 19.2 ± 2.5 |

System: not listed separately
Assay: Ascorbate oxidation assay (iron complexes)
Assay type: biochemical
Details: iron complex, IBE 3
Procedure: The ability of the iron complexes of the novel ligands to mediate the oxidation of the physiological substrate, ascorbate, was examined using established methods, [18], [22], [52], [53]. Ascorbic acid (100 µM) was prepared immediately prior to each experiment and was incubated in the presence of Fe^III (10 µM; as FeCl3), the chelator (1–60 µM) and a 50-fold molar excess of citrate (500 µM). The absorbance at 265 nm was measured after 10 and 40 min and the difference in absorbance at these time points was calculated. The results of these experiments were expressed as iron-binding equivalents (IBE) due to the different denticity of the chelators examined. The chelators, Dp44mT, DFO and ethylenediaminetetraacetic acid (EDTA) were used as controls as the ability of their iron complexes to oxidize ascorbate has been extensively characterized, [15], [52], [53].
The ability of the iron complexes of the novel TSCs to catalyze the oxidation of the physiological substrate, ascorbate, was important to assess as redox cycling may play a critical role in their anti-proliferative activity, [15], [18], [52], [53]. Thus, the oxidation of ascorbate mediated by the iron complexes of series 1–6 were examined in comparison to the iron complexes of the control compounds, DFO, EDTA and Dp44mT, as the ability of the latter to oxidize ascorbate is well characterized, [15], [52], [53], [68]. The results were expressed as a percentage of the control (no chelator) at iron-binding equivalents (IBEs) of 0.1 (excess “free” iron), 1 (iron-chelator complexes with a fully filled coordination sphere), or 3 (excess free chelator), due to the different denticity of the chelators examined (Fig. 10).
Figure 10 Effect of the iron complexes of (A) series 1, (B) series 2, (C) series 3, (D) series 4, (E) series 5 and (F) series 6 chelators, relative to DFO, Dp44mT and EDTA, on ascorbate oxidation. Chelators at iron-binding equivalent (IBE) ratios of 0.1, 1, and 3 were incubated in the presence of Fe^III (10 µM) and ascorbate (100 µM). The UV-Vis absorbance at 265 nm was recorded after 10 and 40 min, and the difference between the time points was calculated. Results are mean ±SD (3 experiments).

| Compound | Ascorbate oxidation compared with controls |
| --- | --- |
| CCN1CCN(C(=S)N/N=C/c2ccccc2O)CC1 [6a] | decreased ascorbate oxidation relative to the control |

Same assay, conditions: iron complex, IBE 3; FeIII 10 µM, ascorbate 100 µM

| Compound | Ascorbate oxidation (% of the control) |
| --- | --- |
| S=C(N/N=C/c1ccc2ccccc2n1)N1CCN(c2cnccn2)CC1 [2e] | 200–265% |

System: HCT116 p53−/− colon cancer cells
Assay: Proliferation assay (MTS, 96 h)
Assay type: cell-based, human
Details: Homo sapiens, HCT-116, 96 h, 96 h incubation, MTS; mean ±SD (3 experiments)
Procedure: as §1, §2, §3, §4

| Compound | IC50 [µM] |
| --- | --- |
| CCN1CCN(C(=S)N/N=C/c2ccccc2O)CC1 [6a] | > 25 |
| Oc1cccc2ccc(/C=N/NC(=S)N3CCN(c4ccccc4)CC3)nc12 [3b] | 4.67 ± 2.04 |
| CN(C(=S)N/N=C/c1c(O)ccc2cccnc12)C1CCCCC1 [4f] | 18.9 ± 3.6 |
| CCN1CCN(C(=S)NN=C(c2ccccn2)c2ccccn2)CC1 [1a] | 0.04 ± 0.003 |
| Oc1ccc2cccnc2c1/C=N/NC(=S)N1CCN(c2ccccn2)CC1 [4d] | 6.84 ± 5.48 |
| Oc1ccc2cccnc2c1/C=N/NC(=S)N1CCN(c2ccccc2)CC1 [4b] | 8.88 ± 2.53 |
| S=C(N/N=C/c1ccc2ccccc2n1)N1CCN(c2cnccn2)CC1 [2e] | 0.48 ± 0.15 |
| Oc1ccccc1/C=N/NC(=S)N1CCN(c2cnccn2)CC1 [6e] | 10.7 ± 1 |

System: HCT116 p53+/+ colon cancer cells
Assay: Proliferation assay (MTS, 96 h)
Assay type: cell-based, human
Details: Homo sapiens, HCT-116; 96 h incubation, MTS; mean ±SD (3 experiments)
Procedure: as §1, §2, §3, §4

| Compound | IC50 [µM] |
| --- | --- |
| CCN1CCN(C(=S)N/N=C/c2ccccc2O)CC1 [6a] | > 25 |
| Oc1cccc2ccc(/C=N/NC(=S)N3CCN(c4ccccc4)CC3)nc12 [3b] | 4.18 ± 1.46 |
| CN(C(=S)N/N=C/c1c(O)ccc2cccnc12)C1CCCCC1 [4f] | 19 ± 0.5 |
| CCN1CCN(C(=S)NN=C(c2ccccn2)c2ccccn2)CC1 [1a] | 0.02 ± 0.002 |
| Oc1ccc2cccnc2c1/C=N/NC(=S)N1CCN(c2ccccn2)CC1 [4d] | 9.15 ± 1.19 |
| Oc1ccc2cccnc2c1/C=N/NC(=S)N1CCN(c2ccccc2)CC1 [4b] | 7.45 ± 0.66 |
| S=C(N/N=C/c1ccc2ccccc2n1)N1CCN(c2cnccn2)CC1 [2e] | 0.088 ± 0.044 |
| Oc1ccccc1/C=N/NC(=S)N1CCN(c2cnccn2)CC1 [6e] | 10.9 ± 0.7 |
